Values belong to the compound of their own block, whether it stands above or below them. Square brackets hold non-standard residues; d marks the D form. Peptide text beside a SMILES is read from it.
Legend:
[1] = tested on: GH release; assay: Released GH in ten day-rats, s.c. (Table 9); type: in vivo; settings: 15 minutes
Description: In vivo activity of these compounds was determined in ten day-rats, which were subcutaneously injected (s.c.) with a dose of 300 μg/kg or with different doses in dose-response studies, according to the procedure as described in Deghenghi et. al, Life Sciences 54, 1321 (1994). The released GH was measured 15 minutes following compound administration.

[2] = Stability of D-Trp and D-2-methyl-Trp in 1% solutions (HPLC peak area); type: physicochemical; settings: pH 2.2 citrate buffer, dark, helium (FIG. 1), pH 5.4 acetate buffer, oxygen, constant light (FIG. 2)
[3] = tested on: pituitary cell monolayers; assay: GH secretion of pituitary cell monolayers incubated with peptides; type: cell-based, rats; settings: 2 hours incubation
Description: (§1) Male Sprague Dawley rats (Charles River, Calco, Italy) of 2-3 months of age were used. Rats were housed at 22 +2° C., with lighting cycle of 14 h light: 10 h dark (lights on from 06.00 to 20.00 h), at least 10 days before starting the experiments. A standard dry diet and water were available ad libitum.
Pituitary tissue used for cell dissociation included only the anterior lobe. Briefly, pituitary glands were collected in sterile F-10 medium and after cutting into small fragments incubated twice (30 minutes each) at 37° C. in F-10 medium containing 6% fetal calf serum and collagenase (2.5 mg/ml) (Boehringer, Mannheim GmbH, Germany). Fragments were then washed in Dulbecco's PBS, Ca^2 + and Mg^2 + free medium and mechanically dissociated. Single cell suspension was planted onto 24-well (2×10^5 cells/well) culture plates. The cells were incubated in F-10 medium supplemented with 10% horse serum, 4% fetal calf serum and gentamycin (25 μg/ml), in a humidified atmosphere of 5% CO2 and 95% air at 37° C.
After 3 days, the medium was removed and the cells washed twice with serum free F-10, then incubated with 1 ml of F-10 containing 0.1% BSA only, or with added various concentrations of synthetic peptides.
After incubation for 2 h at 37° C., media were collected and stored frozen at -20° C. until assayed for measurement of GH content.
(§2) Medium and plasma GH was measured by radioimmunoassay using materials supplied by the NIADDK Bethesda, Md. Values were expressed in term of NIASSK-rat-GH-RP-2 standard (potency 2 IU/ml), as ng/ml of medium or plasma.
(§3) The minimum detectable value of rat was 1.0 ng/ml; intra-assay variability was 6%. To avoid inter-assay variation, samples from each experiment were assayed simultaneously.

[4] = tested on: GH release; assay: Plasma GH after i.v. administration in male rats anesthetized with ketamine and xilazine; type: in vivo; settings: 0 min (before injection)
Description: as §1
(§4) Between 09.00-10.00 h rats were anesthetized with ketamine (58 mg/kg, Inoketam, VIRBAC, Milano) and xilazine (12 mg/kg, Rompun, Bayer, Milano). Thirty minutes later, a blood sample ([…]) was withdrawn from the exposed jugular vein, peptides were injected intravenously or subcutaneously, and further blood samples were collected 10, 20 and 30 minutes later.
as §2, §3

[5] = tested on: GH release; assay: Plasma GH after s.c. administration in male rats anesthetized with ketamine and xilazine; type: in vivo; settings: 0 min (before injection)
Description: as §1, §4, §2, §3

[6] = tested on: rat; assay: Acute cardiovascular toxicity in the rat, single i.v. dose, mortality; type: in vivo; settings: observed up to 4 hours
Description: These two peptides were also tested for acute cardiovascular toxicity in the rat.
Dosages were calculated on the basis of the declared peptide content in each product, as specified below:
A single dose of HEXARELIN or GHRP-6 was administered to rats in different calendar dates in such a way that each group/dose should be treated in two subsequent days.
For each compound, appropriate amounts of solutions in 0.9% NaCl for injection were prepared just before treatment at the suitable concentrations. The solutions were sterilized by filtration (Millipore filter, pore size 0.22 μm). Owing to the type of the study (acute study) in which formulates were administered just after preparation, stability checks were not performed. Concentration checks were also not performed. The volume of solution injected was maintained constant at 1 ml/Kg.
The intravenous injections were done as a single dose in one vein of the tail with an appropriately gauged sterile, disposable, plastic syringe. The injection rate was about 0.1 ml/sec.
Periodical observations were made up to 4 hours after treatment. Abnormality and mortality were recorded. Body weight was recorded once during pre-trial and on the administration day to calculate the volumes to be injected.

[7] = tested on: GH release; assay: GH response in conscious, freely-moving rats after antiserum pretreatment, i.v. 25 μg/kg; type: in vivo; settings: 25 μg/kg i.v.
Description: Sixty male rats were prepared with indwelling venous catheters under ether anesthesia three days before experimentation. On the day of experimentation, all animals were given an iv heparin injection (100 IU; 0630 h). At 0700 h, animals were treated with 0.5 ml of either normal serum (control-as), somatostatin antiserum (somatostatin-as; 0.25 ml+0.25 ml saline), growth hormone-releasing hormone antiserum (GHRH-as; 0.25 ml+0.25 ml saline), or both somatostatin antiserum and growth hormone-releasing hormone antiserum (0.25 ml somatostatin-as+0.25 ml GHRH-as). Blood sampling began 60 minutes after antiserum pretreatment, with blood samples collected every 20 minutes for three hours. After the 180 minute sample (1100 h), animals were treated iv with 25 μg/kg of either Hexarelin or GHRP-6. Blood samples were then collected at 5, 10, 15, 20, 30, 40, and 60 minutes after peptide treatment. All samples were centrifuged immediately and the plasma frozen until assayed. The peak GH response to Hexarelin and GHRP-6 as well as the area under the response curves (AUCs) for the thirty minutes following peptide injection were calculated. Data were subjected to repeated measures analysis of variance and are expressed as mean±SEM.

[8] = tested on: adenylcyclase; assay: Adenylcyclase activity in anterior pituitary gland cells; type: cell-based; settings: anterior pituitary gland cells from rats weighing 150 g
[9] = 300 μg/kg s.c., GH control 10 to 31 ng/ml depending on experiment

Compound: imidazolylacetyl-D-Mrp-Ala-Trp-D-Phe-Lys-NH2
- GH released [1, 9]: 159 ± 27 ng/mL

- time stable in solution (HPLC peak area) [2]: ≥ 60 days
Compound: Cc1[nH]c2ccccc2c1C[C@@H](N)C(=O)O [substituted Trp, D-2-Methyl-Tryptophan]

Compound: N[C@H](Cc1c[nH]c2ccccc12)C(=O)O [unsubstituted Trp, D-Tryptophan, reference compound]
- time stable in solution (HPLC peak area) [2]: about 20 days

Compound: C[C@H](NC(=O)[C@@H](Cc1c[nH]c2ccccc12)NC(=O)[C@@H](N)Cc1c[nH]cn1)C(=O)N[C@@H](Cc1c[nH]c2ccccc12)C(=O)N[C@H](Cc1ccccc1)C(=O)N[C@@H](CCCCN)C(N)=O [GHRP-6, His-D-Trp-Ala-Trp-D-Phe-Lys-NH2] (H-H[dW]AW[dF]K-NH2)
- GH-releasing activity ([3]; 10^-6 M): 510.0 ± 12.0 ng/well
- GH-releasing activity ([3]; 10^-7 M): 526.5 ± 19.0 ng/well
- GH-releasing activity ([3]; 10^-8 M): 544.2 ± 23.9 ng/well
- plasma GH ([4]; i.v. 150 μg/kg): 30.2 ± 7.8 ng/mL
- plasma GH ([4]; i.v. 300 μg/kg): 21.9 ± 4.4 ng/mL
- plasma GH ([4]; i.v. 600 μg/kg): 21.2 ± 6.1 ng/mL
- plasma GH ([5]; s.c. 150 μg/kg): 20.0 ± 5.0 ng/mL
- plasma GH ([5]; s.c. 300 μg/kg): 20.0 ± 6.0 ng/mL
- plasma GH ([5]; s.c. 600 μg/kg): 18.0 ± 4.0 ng/mL
- Dead rats/Total No of rats per group ([6]; 2.5 mg/kg i.v. single dose): 0/6
- Dead rats/Total No of rats per group ([6]; 5.0 mg/kg i.v. single dose): 1/6
- Dead rats/Total No of rats per group ([6]; 7.5 mg/kg i.v. single dose): 2/6
- Mean GH ([7]; main peptide effect pooled over antiserum pretreatments): 131 ± 13 ng/mL
- Peak GH ([7]; pooled over antiserum pretreatments): 293 ± 41 ng/mL
- GH AUC ([7]; thirty minutes following injection, pooled over antiserum pretreatments): 4220 ± 665 ng/ml/30 min
- adenylcyclase activity, increase compared with the baseline [8]: inactive

Compound: 4-(aminomethyl)cyclohexanecarbonyl-D-Mrp-D-Trp-Phe-Lys-NH^2
- GH released [1, 9]: 111.8 ± 24.6 ng/mL

- EC50 [8]: 0.23 nM
Compound: D-Ala-D-Mrp-Ala-Trp-D-Phe-Lys-NH2 [D-Ala-D-Mrp--Ala--Trp-D-Phe--Lys--NH2]
- GH released ([1]; 40 μg/kg s.c., GH control 34 ± 1): 200 ± 20 ng/mL
- GH released ([1]; 320 μg/kg s.c., GH control 34 ± 1): 251 ± 32 ng/mL
- adenylcyclase activity, increase compared with the baseline [8]: 30%

From patent US5955421A, “Peptides containing D-2-alkyl-Tryptophan” (priority 1990, dated 1999)
